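A five-concentration, 48-hour dose response in 96-well plates underlies each endpoint, interpolated linearly between surrounding concentrations. GI50 is the concentration that inhibits growth by half. TGI is the concentration that stops growth completely.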
How the values were obtained:
Experiment in all cases: inhibition of tumour cell growth, NCI panel, 48 h
[1] = test system: NCI/ADR-RES ovarian
[2] = test system: M14 melanoma
[3] = test system: HL-60(TB) leukemia
[4] = test system: EKVX NSCLC
[5] = test system: ACHN renal
[6] = test system: SK-OV-3 ovarian
[7] = test system: OVCAR-5 ovarian
[8] = test system: UO-31 renal
[9] = test system: U251 CNS
[10] = test system: DU-145 prostate
[11] = test system: BT-549 breast
[12] = test system: T-47D breast
[13] = test system: K-562 leukemia
[14] = test system: MDA-MB-231 breast
[15] = test system: HCC-2998 colon
[16] = test system: RPMI-8226 leukemia
[17] = test system: SN12C renal
[18] = test system: SF-268 CNS
[19] = test system: KM12 colon
[20] = test system: OVCAR-8 ovarian
[21] = test system: SW-620 colon
[22] = test system: COLO 205 colon
[23] = test system: RXF 393 renal
[24] = test system: SK-MEL-2 melanoma
[25] = test system: SK-MEL-5 melanoma
[26] = test system: HCT-116 colon
[27] = test system: OVCAR-4 ovarian
[28] = test system: UACC-62 melanoma
[29] = test system: TK-10 renal
[30] = test system: A498 renal
[31] = test system: HCT-15 colon
[32] = test system: NCI-H23 lung
[33] = test system: HS 578T breast
[34] = test system: IGROV1 ovarian
[35] = test system: NCI-H460 lung
[36] = test system: SF-539 CNS
[37] = test system: PC-3 prostate
[38] = test system: CAKI-1 renal
[39] = test system: 786-0 renal
[40] = test system: OVCAR-3 ovarian
[41] = test system: LOX IMVI melanoma
[42] = test system: NCI-H522 lung
[43] = test system: UACC-257 melanoma
[44] = test system: MDA-MB-435
[45] = test system: MALME-3M melanoma
[46] = test system: HOP-62 NSCLC
[47] = test system: NCI-H226 lung
[48] = test system: SF-295 CNS
[49] = test system: CCRF-CEM leukemia
[50] = test system: HOP-92 NSCLC
[51] = test system: SNB-19 CNS
[52] = test system: SNB-75 CNS
[53] = test system: MCF7 breast
[54] = test system: A549 NSCLC

Clc1ccc(Cc2nc3cc4ccccc4cc3[nH]2)cc1
GI50 [1]: 22.9 µM
TGI [1]: > 100 µM
GI50 [2]: 53.1 µM
TGI [2]: > 100 µM
GI50 [3]: > 100 µM
TGI [3]: > 100 µM
GI50 [4]: 26.9 µM
TGI [4]: > 100 µM
GI50 [5]: 18.8 µM
TGI [5]: 57.7 µM
GI50 [6]: 14.7 µM
TGI [6]: 83.3 µM
GI50 [7]: 26.3 µM
TGI [7]: > 100 µM
GI50 [8]: 54.1 µM
TGI [8]: > 100 µM
GI50 [9]: 10.5 µM
TGI [9]: 29.6 µM
GI50 [10]: 17.1 µM
TGI [10]: > 100 µM
GI50 [11]: 14.1 µM
TGI [11]: > 100 µM
GI50 [12]: 23.1 µM
TGI [12]: 88.6 µM
GI50 [13]: 50.8 µM
TGI [13]: > 100 µM
GI50 [14]: 25.4 µM
TGI [14]: 96.1 µM
GI50 [15]: 15.8 µM
TGI [15]: 89.5 µM
GI50 [16]: 9.77 µM
TGI [16]: > 100 µM
GI50 [17]: 94.8 µM
TGI [17]: > 100 µM
GI50 [18]: 10.9 µM
TGI [18]: 75.7 µM
GI50 [19]: 9.64 µM
TGI [19]: > 100 µM
GI50 [20]: 7.92 µM
TGI [20]: 37.1 µM
GI50 [21]: 6.55 µM
TGI [21]: > 100 µM
GI50 [22]: 8.64 µM
TGI [22]: > 100 µM
GI50 [23]: > 100 µM
TGI [23]: > 100 µM
GI50 [24]: > 100 µM
TGI [24]: > 100 µM
GI50 [25]: 3.17 µM
TGI [25]: > 100 µM
GI50 [26]: 5.06 µM
TGI [26]: 20.6 µM
GI50 [27]: 22.7 µM
TGI [27]: > 100 µM
GI50 [28]: 73.5 µM
TGI [28]: > 100 µM
GI50 [29]: 10.6 µM
TGI [29]: 38.4 µM
GI50 [30]: 21.7 µM
TGI [30]: > 100 µM
GI50 [31]: 5.33 µM
TGI [31]: 26.4 µM
GI50 [32]: 28.8 µM
TGI [32]: > 100 µM
GI50 [33]: 12.4 µM
TGI [33]: 67.7 µM
GI50 [34]: 26 µM
TGI [34]: > 100 µM
GI50 [35]: 2.22 µM
TGI [35]: > 100 µM
GI50 [36]: 3.08 µM
TGI [36]: 81.1 µM
GI50 [37]: 7.12 µM
TGI [37]: > 100 µM
GI50 [38]: 6.55 µM
TGI [38]: 69.9 µM
GI50 [39]: 8.99 µM
TGI [39]: 43.2 µM
GI50 [40]: 14.4 µM
TGI [40]: > 100 µM
GI50 [41]: 13.2 µM
TGI [41]: > 100 µM
GI50 [42]: 82 µM
TGI [42]: > 100 µM
GI50 [43]: > 100 µM
TGI [43]: > 100 µM
GI50 [44]: 27.8 µM
TGI [44]: > 100 µM
GI50 [45]: 26.8 µM
TGI [45]: > 100 µM
GI50 [46]: 10.2 µM
TGI [46]: 30.8 µM
GI50 [47]: 30.1 µM
TGI [47]: > 100 µM
GI50 [48]: 3.08 µM
TGI [48]: 30 µM
GI50 [49]: 2.21 µM
TGI [49]: > 100 µM
GI50 [50]: 19.5 µM
TGI [50]: > 100 µM
GI50 [51]: 20 µM
TGI [51]: > 100 µM
GI50 [52]: > 100 µM
TGI [52]: > 100 µM
GI50 [53]: 17.1 µM
TGI [53]: > 100 µM
GI50 [54]: 6.83 µM
TGI [54]: > 100 µM
